The values that follow are results of earlier work, collected in patent publication US20170217996A1, “Large-scale diastereoselective syntheses of cycloheptadienylsulfones and stereotetrads” (Purdue Research Foundation, priority 2014, published 2017).

One data set has as its system P388 leukemia. Particulars: mice.
The next data set relates to Ehrlich carcinoma. The note with it: mice.
In the next data set the test system is B16 melanoma. The note with it: mice.
In a further data set the test system is Colon 26 carcinoma. Particulars: mice.
The test system of a further data set is Lewis lung. The note with it: mice.
For the next data set, the system named is tubulin. Particulars: in association with actin.
The subject of another data set is actin. The note with it: in vitro.

As to `COCC(C(=O)O[C@@H]1C/C=C/C=C/C(=O)O[C@H]([C@@H](C)[C@@H](O)[C@@H](C)CC[C@@H](OC(=O)C(C)N(C)C)[C@H](C)[C@H](OC(C)=O)[C@H](C)/C=C/N(C)C=O)C/C=C/[C@H](OC)C[C@H](C)C/C=C(\C)[C@@H](OC)CC[C@@H](C)[C@@H](O)[C@@H]1C)N(C)C` (stereo partly drawn) [ApA, Aplyronine A], the increase of lifespan in the data set with P388 leukemia is recorded as 545%; in the data set on Ehrlich carcinoma it was 398%; in the data set on B16 melanoma it was 201%; with Colon 26 carcinoma it was 255%; in the data set with Lewis lung, 566%. Further, the “complex with actin and tubulin” value in the data set with actin and tubulin is on record as 1:1:1 heterotrimeric complex. The “inhibition of tubulin polymerization” value in the data set with tubulin is “inhibits tubulin polymerization”. For the same compound, the “inhibition of actin polymerization” value with actin is “inhibit actin polymerization in vitro to the same extent”. Moreover, in the data set on HeLa S3 cells, the “concentration that inhibits spindle formation and mitosis” value is given as 100 pM.
